Among the data in the Kinase Knowledgebase extract (Sharma et al. 2016) are IC50 values, retold here.

The assay has as its target EGFR (UniProt P00533).

Where only a bound is given, the exact number is not on record here.

Chain of EGFR (P00533 whole entry, looked up): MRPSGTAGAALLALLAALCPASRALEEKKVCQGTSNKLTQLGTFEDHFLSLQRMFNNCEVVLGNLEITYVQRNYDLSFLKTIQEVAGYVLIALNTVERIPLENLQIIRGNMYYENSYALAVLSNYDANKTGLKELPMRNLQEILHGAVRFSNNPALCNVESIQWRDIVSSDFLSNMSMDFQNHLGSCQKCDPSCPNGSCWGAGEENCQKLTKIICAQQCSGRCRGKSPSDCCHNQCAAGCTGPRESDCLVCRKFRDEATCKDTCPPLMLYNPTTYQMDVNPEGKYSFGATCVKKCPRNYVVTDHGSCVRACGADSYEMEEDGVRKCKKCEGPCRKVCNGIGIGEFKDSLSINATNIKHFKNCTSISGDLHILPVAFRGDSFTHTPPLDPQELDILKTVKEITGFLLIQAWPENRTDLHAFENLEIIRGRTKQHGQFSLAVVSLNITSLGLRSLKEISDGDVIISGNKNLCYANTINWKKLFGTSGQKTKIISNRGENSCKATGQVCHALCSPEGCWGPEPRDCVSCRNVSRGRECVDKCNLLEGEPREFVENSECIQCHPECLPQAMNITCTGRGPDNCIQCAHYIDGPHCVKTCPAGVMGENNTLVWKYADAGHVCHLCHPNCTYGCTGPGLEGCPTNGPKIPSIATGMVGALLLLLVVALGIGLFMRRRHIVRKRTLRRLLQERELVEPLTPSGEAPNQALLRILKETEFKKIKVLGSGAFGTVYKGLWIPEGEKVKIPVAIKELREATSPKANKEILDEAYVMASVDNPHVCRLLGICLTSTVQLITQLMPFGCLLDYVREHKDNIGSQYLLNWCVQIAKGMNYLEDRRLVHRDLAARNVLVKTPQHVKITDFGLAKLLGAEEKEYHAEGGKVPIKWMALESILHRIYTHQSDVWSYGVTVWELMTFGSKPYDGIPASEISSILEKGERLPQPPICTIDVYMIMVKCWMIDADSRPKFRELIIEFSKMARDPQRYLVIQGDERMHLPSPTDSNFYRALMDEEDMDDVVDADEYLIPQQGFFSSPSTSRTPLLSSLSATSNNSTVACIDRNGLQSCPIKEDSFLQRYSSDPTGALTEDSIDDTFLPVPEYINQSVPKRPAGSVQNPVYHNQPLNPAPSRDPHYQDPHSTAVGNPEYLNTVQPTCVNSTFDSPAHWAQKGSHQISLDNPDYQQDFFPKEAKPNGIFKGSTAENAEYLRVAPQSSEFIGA

For `CCN(CCS(C)(=O)=O)Cc1ccc(-c2ccc3ncnc(Nc4ccc(OCc5cccc(F)c5)c(Cl)c4)c3c2)o1`, the IC50 (usually the concentration that inhibits the measured activity by half) is less than 100 nM.
As to `Cn1ccnc1S(=O)(=O)CCNCc1ccc(-c2ccc3ncnc(Nc4ccc(OCc5cccc(F)c5)c(Cl)c4)c3c2)o1`, the IC50 was less than 100 nM.
`CCCS(=O)(=O)CCNCc1ccc(-c2cc3c(Nc4ccc(OCc5cccc(F)c5)cc4)ncnc3cn2)o1` had an IC50 of less than 100 nM.
Regarding `C=CS(=O)(=O)CCOCc1ccc(-c2ccc3ncnc(Nc4ccc(OCc5cccc(F)c5)c(Cl)c4)c3c2)o1`, the IC50 was less than 100 nM.
With `CCCN(CCS(C)(=O)=O)Cc1ccc(-c2ccc3ncnc(Nc4ccc(OCc5cccc(F)c5)c(Cl)c4)c3c2)o1` the figure was less than 100 nM.
Turning to `O=S(=O)(CCNCc1ccc(-c2ccc3ncnc(Nc4ccc(OCc5cccc(F)c5)c(Cl)c4)c3c2)o1)c1ccccc1`, the IC50 is less than 100 nM.
The same measure for `CS(=O)(=O)CCN(CC#N)Cc1ccc(-c2ccc3ncnc(Nc4ccc(OCc5cccc(F)c5)c(Cl)c4)c3c2)o1`: less than 100 nM; for `CCCS(=O)(=O)CCNCc1ccc(-c2ccc3ncnc(Nc4ccc(OCc5cccc(F)c5)c(Cl)c4)c3c2)o1`: less than 100 nM.
With `CS(=O)(=O)CCOCc1ccc(-c2ccc3ncnc(Nc4ccc(OCc5cccc(F)c5)c(Cl)c4)c3c2)o1` the figure was less than 100 nM; with `CS(=O)(=O)CCNCCCc1ccc(-c2ccc3ncnc(Nc4ccc(OCc5ccccc5)c(Cl)c4)c3c2)o1`, less than 100 nM.
With `O=S(=O)(CCOCc1ccc(-c2ccc3ncnc(Nc4ccc(OCc5cccc(F)c5)c(Cl)c4)c3c2)o1)c1ccccc1` the figure was less than 100 nM; with `O=S(=O)(CCNCc1ccc(-c2ccc3ncnc(Nc4ccc(OCc5cccc(F)c5)c(Cl)c4)c3c2)o1)c1ccccn1`, less than 100 nM.
